Data on 10 compounds can be found in the NIST ThermoML archive (doi:10.1016/j.tca.2014.11.027).

The conditions of this series: Liquid; Gas Chromatography.

Each structure is given as a SMILES string. Numbers after ± are expanded uncertainties.

As for `CCCCCP(=O)(OCCCC)OCCCC` [dibutyl pentylphosphonate], the Normal boiling temperature is 306.70 ± 2 °C. Regarding `CCCCP(=O)(OCCC(C)C)OCCC(C)C` [diisopentyl butylphosphonate], the Normal boiling temperature amounted to 306.90 ± 2 °C.

With `CCCCCCCCP(=O)(OCCCC)OCCCC` [dibutyl octylphosphonate], the Normal boiling temperature stood at 332.96 ± 2 °C. To `CCCCCCP(=O)(OCCCC)OCCCC` [dibutyl hexylphosphonate] belongs 319.92 ± 2 °C; to `CCCCOP(=O)(CCCC)OCCCC` [dibutyl butanephosphonate], 292.92 ± 2 °C.

Turning to `CCCCCOP(=O)(CCCC)OCCCCC` [dipentyl butylphosphonate], the Normal boiling temperature amounted to 319.84 ± 2 °C. As to `CCCCCCP(=O)(OCCCCC)OCCCCC` [dipentyl hexylphosphonate], the Normal boiling temperature was determined as 344.43 ± 2 °C. With `CCCCCCP(=O)(OCCC(C)C)OCCC(C)C` [diisopentyl hexylphosphonate], the Normal boiling temperature was 332.33 ± 2 °C. The result for `CCCCCOP(=O)(CCCCC)OCCCCC` [dipentyl pentylphosphonate] reads 332.64 ± 2 °C; that for `CCCCCP(=O)(OCCC(C)C)OCCC(C)C` [diisopentyl pentylphosphonate], 321.52 ± 2 °C.
